# Measured values as given in US7396842B2, “Five-membered cyclic compounds” (Dianippon Sumitomo Pharma Co., Ltd., priority 2002, dated 2008).
# Where two headings read alike, the source gives them in different places.
# Biological target: T1, SMBS on rat lung membranes (Rattus norvegicus, UniProt A0A8I6A822)
# T1 construct: from tissue; host or cells: rat lung membranes (SD male rats)
# Assay: Receptor binding of the compound in rat lung membranes ([125I]-iodo-cyanopindolol ligand binding assay; Experiments 1 and 4)
# Settings: rat lung membranes, read-out: Binding Activity (30 μM)
# Protocol: Evaluation Test on Receptor Binding of the Compound in Rat Lung Membranes:
# This experiment was carried out according to the method disclosed in Sugasawa et al., (Sugasawa, T. et al., J. Biol. Chem., 272, 21244-21252(1997)).
# Preparation of Rat Lung Membranes
# The air tube and blood vessels were removed from the lung excised from SD male rats (7-weeks old when used, purchased from Charles River Japan, Inc.), and the lung was chopped, and washed with ice-cold tris-saline buffer (10 mM Tris-HCl, 154 mM sodium chloride, pH 7.4). The lung was homogenized by PHYSCOTRON (maximum speed: 1 minute) in a buffer for homogenization (tris-saline buffer containing 1 mM ethylenediaminetetraacetate (EDTA), 1 mM 4-(2-aminoethyl)-benzenesulfonyl fluoride (AEBSF), 5 μg/ml aprotinin, 5 μg/ml leupeptin) under ice-cooling. The mixture was centrifuged at a low speed (1500×g, 20 minutes, 4° C.), and the supernatant was super-centrifuged (100000×g, 20 minutes, 4° C.). The pellets thus obtained were suspended in tris-saline buffer, and kept at −80° C. The concentration of protein was measured by a Protein Assay Kit manufactured by Bio-Rad using bovine serum albumin (BSA) as standard.
# To each well of a protein-non-adsorbent round-bottom 96-well assay plate (purchased from IWAKI GLASS CO., LTD.) was added tris-saline buffer (200 μl) containing 1 nM [^125I]-iodo-cyanopindolol (purchased from Amarsham), 10 μM serotonin, 20 μM dl-propranol, 10 μM phentoramine, 1.1 mM ascorbic acid and 100 μg lung membranes, and the mixture was mixed well by pipetting, and the plate was incubated at 37° C. for 30 minutes. Test compounds were dissolved in 100% dimethylsulfoxide, and added to the plate in an amount of 2 μl (final concentration of DMSO: 1%). In order to obtain non-specific binding, L-threo-3-(3,4-dihydroxyphenyl)-N-[3-(4-fluorophenyl)propyl]-serinepyrrolidinamide was added at a final concentration of 100 μM instead of test compound. During this period, 0.3% polyethyleneimine (PEI)/tris-saline buffer (100 μl) was added to a multiscreen plate (96-well B-glassfiber, milipore Cat. No. MAFB NOB10) and the plate was incubated for more than 30 minutes. The plate was washed by vacuum filtration (by adding ice-cold tris-saline buffer (200 μl) and then vacuum filtration), and the reaction solution on the 96-well assay plate was washed by vacuum filtration onto the multiscreen plate for four times. The B-glassfiber paper filter at the bottom of the multiscreen plate was punched out, and the γ-ray amount of [^125I]-iodo-cyanopindolol being trapped onto the paper filter was measured as binding amount. The binding amount in the presence of DMSO (final concentration: 1%) was regarded as total binding, and the binding in the presence of L-threo-3-(3,4-dihydroxyphenyl) -N-[3-(4-fluorophenyl)-propyl]serinepyrrolidinamide was regarded as non-specific binding. The value which is calculated by subtracting non-specific binding from total binding is specific binding. The binding activity of the compound can be calculated by the following equation, and expressed in a ratio of inhibiting the specific binding of [^125I]-iodo-cyanopindorol to SMBS on rat lung membranes.
# In the same manner to in Experiment 1, the receptor binding assay was carried out on the present compounds by using the rat lung membranes.
# [1] = Table 37, compound concentration 30 μM, [125I]-iodo-cyanopindolol, Experiment 1
# [2] = Table 39, compound concentration 30 μM, [125I]-iodo-cyanopindolol, Experiment 1
# [3] = Table 42, concentration tested 30 μM, Experiment 4
# T1 sequence (A0A8I6A822 27-587): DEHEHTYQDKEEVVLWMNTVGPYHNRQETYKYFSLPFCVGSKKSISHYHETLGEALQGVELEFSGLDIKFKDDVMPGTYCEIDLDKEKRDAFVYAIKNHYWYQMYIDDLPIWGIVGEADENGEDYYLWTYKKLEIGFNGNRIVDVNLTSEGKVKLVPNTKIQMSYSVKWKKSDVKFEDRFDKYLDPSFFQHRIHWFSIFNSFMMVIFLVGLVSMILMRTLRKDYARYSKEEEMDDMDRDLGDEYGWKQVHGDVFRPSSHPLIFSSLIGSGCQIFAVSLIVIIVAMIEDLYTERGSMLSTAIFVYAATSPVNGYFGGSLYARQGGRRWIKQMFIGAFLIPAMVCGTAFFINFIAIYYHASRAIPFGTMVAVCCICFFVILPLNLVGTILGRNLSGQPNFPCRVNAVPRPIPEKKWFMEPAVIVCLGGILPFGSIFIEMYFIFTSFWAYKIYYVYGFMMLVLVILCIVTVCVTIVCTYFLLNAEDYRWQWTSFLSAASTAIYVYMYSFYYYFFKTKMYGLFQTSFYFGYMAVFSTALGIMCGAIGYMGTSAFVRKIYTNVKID
inhibition at 30 µM [3],Structure (SMILES),also measured
,"COc1ccc(-c2csc(=Nc3ccccc3)n2CCCN)cc1 [Example 9, N-[3-(3-Aminopropyl)-4-(4-methoxyphenyl)-thiazol-2(3H) -ylidene]aniline]",inhibition at 30 µM [1]: 79%
,"NCCCn1c(-c2ccc(-c3ccccc3)cc2)csc1=Nc1ccccc1 [Example 11, N-[3-(3-Aminopropyl)-4-(1,1′-biphenyl-4-yl)thiazol-2(3H)-ylidene]aniline]",inhibition at 30 µM [1]: 98.1%
,"CNCCCn1c(-c2ccc(OC)cc2)csc1=Nc1ccccc1 [Example 152, N-{4-(4-Methoxyphenyl)-3-[3-(methylamino)propyl]thiazol-2(3H)-ylidene}aniline]",inhibition at 30 µM [2]: 76.5%
,"CC(=O)NCCCn1c(-c2ccc(Br)cc2)csc1=Nc1ccccc1 [Example 153, N-{3-[4-(4-Bromophenyl)-2-phenyliminothiazol-3(2H)-yl]propyl}-acetamide]",inhibition at 30 µM [2]: 89.7%
,"O=C(CO)NCCCn1c(-c2ccc(Br)cc2)csc1=Nc1ccccc1 [Example 169, N-{3-[4-(4-Bromophenyl)-2-(phenylimino)-thiazol-3(2H)-yl]propyl}-2-hydroxyacetamide]",inhibition at 30 µM [2]: 58.6%
,"COC(=O)NCCCn1c(-c2ccc(OC)cc2)csc1=Nc1ccccc1 [Example 176, Methyl 3-[4-(4-methoxyphenyl)-2-(phenylimino)thiazol-3(2H)-yl]propyl-carbamate]",inhibition at 30 µM [2]: 75.2%
,"NCCCn1c(-c2ccc(C(=O)O)cc2)csc1=Nc1ccccc1 [Example 185, 4-[3-(3-Aminopropyl)-2-(phenylimino)-2,3-dihydrothiazol-4-yl]-benzoic acid]",inhibition at 30 µM [2]: 13.9%
99%,"CNC(=O)NCCn1c(-c2ccc(N3CCOCC3)cc2)csc1=Nc1ccc(F)cc1 [Example 214, N-Methyl-N′-{2-[2-[(4-fluorophenyl)imino]-4-[4-(morpholino)phenyl]-thiazol-3(2H)-yl]ethyl}urea]",
109%,"CCOC(=O)CNCCCn1c(-c2ccc(F)cc2)csc1=Nc1ccc(Cl)cc1OC [Example 215, Ethyl N-{3-[2-[(4-chloro-2-methoxyphenyl)imino]-4-(4-fluorophenyl)-thiazol-3(2H)-yl]propyl}glycinate]",
112%,"CCOC(=O)CCNCCCn1c(-c2ccc(F)cc2)csc1=Nc1ccc(Cl)cc1OC [Example 216, Ethyl N-{3-[2-[(4-chloro-2-methoxyphenylimino)]-4-(4-fluoro-phenyl)-thiazol-3 (2H)-yl]propyl}-β-alaninate]",
101%,"CN(C)C(=O)NCCCn1c(-c2ccc(N3CCOCC3)cc2)csc1=Nc1ccc(F)cc1 [Example 220, N′-{3-[2-[(4-Fluorophenyl)imino]-4-[4-(morpholino)phenyl]thiazol-3(2H)-yl]propyl}-N,N-dimethylurea]",
79%,"CCCCNC(=O)NCCCn1c(-c2ccc(N3CCOCC3)cc2)csc1=Nc1ccc(F)cc1 [Example 221, N-butyl-N′-{3-[2-[(4-fluorophenyl)imino]-4-[4-(morpholino)phenyl]-thiazol-3(2H)-yl]propyl}urea]",
86%,"O=C(NCCCn1c(-c2ccc(N3CCOCC3)cc2)csc1=Nc1ccc(F)cc1)c1ccccc1 [Example 222, N-{3-[2-[(4-Fluorophenyl)imino]-4-[4-(morpholino)phenyl]thiazol-3(2H)-yl]propyl}benzamide]",
50%,CCOC(=O)CC(=O)NCCCn1c(-c2ccc(N3CCOCC3)cc2)cs/c1=N\c1ccc(F)cc1 [Example 239],
96%,CN(C)CC(=O)NCCCn1c(-c2ccc(N3CCOCC3)cc2)cs/c1=N\c1ccc(F)cc1 [Example 245],
80%,O=C(COc1ccccc1)NCCCn1c(-c2ccc(N3CCOCC3)cc2)cs/c1=N\c1ccc(F)cc1 [Example 246],
98%,CCOC(=O)NCCCn1c(-c2ccc(N3CCOCC3)cc2)cs/c1=N\c1ccc(F)cc1 [Example 250],
61%,CCS(=O)(=O)NCCCn1c(-c2ccc(N3CCOCC3)cc2)cs/c1=N\c1ccc(F)cc1 [Example 251],
110%,N=C(NCCCn1c(-c2ccc(N3CCOCC3)cc2)cs/c1=N\c1ccc(F)cc1)N1CCCCC1 [Example 257],
